“Also recorded” adds a separate entry of the source.
Assays:
human cancer cell lines = test: Cytotoxicity summary (NCI-60 or independent cytotoxicity screen), Scheme 19; assay type: cell-based
topoisomerase I = molecular target: T1, topoisomerase I (Homo sapiens, UniProt P11387); test: Topoisomerase I poison/inhibitor EB gel assay; assay type: biochemical; conditions: compared with CPT (camptothecin)
T1 sequence (P11387 1-765): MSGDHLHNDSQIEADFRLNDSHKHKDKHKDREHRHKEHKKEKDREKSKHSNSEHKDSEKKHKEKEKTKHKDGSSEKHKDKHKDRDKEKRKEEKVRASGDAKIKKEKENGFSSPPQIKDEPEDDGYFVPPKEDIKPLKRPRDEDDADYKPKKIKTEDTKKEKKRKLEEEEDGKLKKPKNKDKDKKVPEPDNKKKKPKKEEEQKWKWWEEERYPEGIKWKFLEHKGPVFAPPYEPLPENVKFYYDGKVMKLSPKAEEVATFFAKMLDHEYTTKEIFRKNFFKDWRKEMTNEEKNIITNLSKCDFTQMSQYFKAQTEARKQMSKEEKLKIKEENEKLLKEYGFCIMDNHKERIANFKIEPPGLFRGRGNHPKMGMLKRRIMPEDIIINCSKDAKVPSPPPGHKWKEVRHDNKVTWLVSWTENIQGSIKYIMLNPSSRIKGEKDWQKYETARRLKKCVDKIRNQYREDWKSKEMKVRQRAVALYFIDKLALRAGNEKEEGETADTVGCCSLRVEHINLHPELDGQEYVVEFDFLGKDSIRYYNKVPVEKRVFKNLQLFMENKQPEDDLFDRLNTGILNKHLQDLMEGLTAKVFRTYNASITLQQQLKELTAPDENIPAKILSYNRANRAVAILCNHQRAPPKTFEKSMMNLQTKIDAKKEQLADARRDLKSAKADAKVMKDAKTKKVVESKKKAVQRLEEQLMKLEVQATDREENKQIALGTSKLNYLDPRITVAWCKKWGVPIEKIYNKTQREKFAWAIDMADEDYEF
Method: The compound MA_AuPr clearly targets topoisomerase II if the statistical analysis of the NCI data for a range of drugs shown in FIG. 13 is correct. MA_AuPr was therefore assayed for its action against topoisomerase II in vitro using TopoGEN's standard protocol over a wide range of test agent concentrations (0.005 to 500 μM) in order to obtain direct experimental proof for the apparent cellular target of the compound to ensure that a fundamental understanding of the mechanism of action of this new class of Au(III) compounds exists. These experiments were performed by the company TopoGEN and at the University of Central Florida. The DNA cleavage experiments were performed in vitro using purified topoisomerase I and II enzymes and supercoiled plasmid DNA as the substrate. The controls that were used in the experiment were linear marker DNA as well as reactions without the gold(III) complex and high concentrations of VP16. The compound VP16 (etoposide) is a commercially available DNA intercalator chemotherapeutic agent, widely used in the treatment of lung and testicular cancers as well as lymphomas. […]

Genotoxicity = test: Genotoxicity
Text: (§1) First, the compound is not genotoxic (i.e. mutagenic).

[1] = test system: 60 human cancer cell lines; test: NCI-60 one-dose screen; assay type: cell-based; conditions: single dose 10 μM
Method: The gold(III) complexes of this invention were screened by the National Cancer Institute (NCI, USA) against their panel of 60 different human cancer cell lines. These screens initially entail a one-dose test for the compound at a high concentration (10 μM; e.g. FIGS. 5, 6 and 7). Compounds with a good cytotoxicity profile in the one-dose screen are then subjected to a five-dose screen for the full panel of sixty human cancer cell lines (the so-called 5-dose NCI-60 screen). In the full five-dose screen, the compound concentration is varied in five doses from 10^−8 M to 10^−4 M in order to establish a dose-response function of percentage cell growth versus the concentration of the test agent. […] Similar data will shortly be available for compounds 1.1Y^1b and 1.5Y^1a as these derivatives are in 5-dose screens currently at the NCI.
The results of one-dose NCI-60 screens are noteworthy and merit some discussion as they quickly indicate activity profiles, cell-line specificity, and general cytotoxicity for the test agents across multiple human cancer cell lines. FIGS. 5, 6, and 7 set out the one-dose screening results for MA_AuPr (FIG. 5), KA_AumacroPr (FIG. 6), and KA_AuMelmPr (FIG. 7) obtained by the NCI. These three compounds are the parent derivatives that are representative of the three new types of gold(III) Schiff base chelate relevant to this invention. All other compounds synthesized as part of this invention have been similarly analyzed.

Microsomal clearance = assay type: in vitro ADME; conditions: microsomes
Text: as §1

topoisomerase II = topoisomerase II (Homo sapiens, UniProt P11388); test: Topoisomerase II DNA cleavage/relaxation assay, supercoiled plasmid DNA, EB gel (TopoGEN protocol); assay type: biochemical
Sequence of topoisomerase II (P11388 whole entry): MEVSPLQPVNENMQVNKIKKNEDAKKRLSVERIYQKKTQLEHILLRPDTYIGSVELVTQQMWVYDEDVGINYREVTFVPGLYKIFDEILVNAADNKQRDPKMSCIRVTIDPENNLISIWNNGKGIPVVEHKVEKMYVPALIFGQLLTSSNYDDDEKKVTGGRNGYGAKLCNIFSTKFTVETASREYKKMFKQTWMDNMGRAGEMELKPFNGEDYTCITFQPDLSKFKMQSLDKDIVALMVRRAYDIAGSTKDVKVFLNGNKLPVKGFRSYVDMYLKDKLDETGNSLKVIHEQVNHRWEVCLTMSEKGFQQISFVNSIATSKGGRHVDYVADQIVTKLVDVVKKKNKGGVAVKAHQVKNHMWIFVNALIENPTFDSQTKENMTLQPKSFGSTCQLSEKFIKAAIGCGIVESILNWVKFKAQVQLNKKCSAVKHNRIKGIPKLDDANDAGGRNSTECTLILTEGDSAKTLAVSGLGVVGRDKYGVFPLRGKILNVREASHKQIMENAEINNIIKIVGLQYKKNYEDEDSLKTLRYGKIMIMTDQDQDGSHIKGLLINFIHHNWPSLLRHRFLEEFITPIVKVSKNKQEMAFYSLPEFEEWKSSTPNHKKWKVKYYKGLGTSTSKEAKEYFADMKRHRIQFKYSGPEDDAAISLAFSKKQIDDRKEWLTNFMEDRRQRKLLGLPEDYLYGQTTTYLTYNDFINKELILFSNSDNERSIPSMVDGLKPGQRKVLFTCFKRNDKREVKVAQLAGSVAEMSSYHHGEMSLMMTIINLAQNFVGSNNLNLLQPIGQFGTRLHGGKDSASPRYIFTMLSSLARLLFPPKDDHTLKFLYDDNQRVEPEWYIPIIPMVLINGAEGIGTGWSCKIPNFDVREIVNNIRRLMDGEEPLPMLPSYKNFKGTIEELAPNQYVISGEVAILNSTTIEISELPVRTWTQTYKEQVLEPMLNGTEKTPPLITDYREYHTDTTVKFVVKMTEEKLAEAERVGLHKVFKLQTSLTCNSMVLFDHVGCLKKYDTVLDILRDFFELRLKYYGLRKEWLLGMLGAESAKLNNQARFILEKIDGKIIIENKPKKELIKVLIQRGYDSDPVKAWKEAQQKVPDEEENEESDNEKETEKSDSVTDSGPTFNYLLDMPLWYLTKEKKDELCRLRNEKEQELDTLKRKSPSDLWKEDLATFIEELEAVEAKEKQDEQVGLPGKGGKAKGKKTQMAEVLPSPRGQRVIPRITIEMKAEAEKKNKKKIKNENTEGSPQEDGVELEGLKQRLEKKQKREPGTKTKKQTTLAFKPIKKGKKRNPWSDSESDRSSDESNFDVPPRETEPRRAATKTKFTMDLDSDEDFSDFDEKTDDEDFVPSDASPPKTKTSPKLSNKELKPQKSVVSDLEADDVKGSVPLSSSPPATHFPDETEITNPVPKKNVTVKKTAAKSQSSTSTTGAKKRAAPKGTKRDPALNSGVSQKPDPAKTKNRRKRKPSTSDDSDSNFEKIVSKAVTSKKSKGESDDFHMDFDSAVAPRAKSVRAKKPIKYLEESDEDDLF
Method: The compound MA_AuPr clearly targets topoisomerase II if the statistical analysis of the NCI data for a range of drugs shown in FIG. 13 is correct. MA_AuPr was therefore assayed for its action against topoisomerase II in vitro using TopoGEN's standard protocol over a wide range of test agent concentrations (0.005 to 500 μM) in order to obtain direct experimental proof for the apparent cellular target of the compound to ensure that a fundamental understanding of the mechanism of action of this new class of Au(III) compounds exists. These experiments were performed by the company TopoGEN and at the University of Central Florida. The DNA cleavage experiments were performed in vitro using purified topoisomerase I and II enzymes and supercoiled plasmid DNA as the substrate. The controls that were used in the experiment were linear marker DNA as well as reactions without the gold(III) complex and high concentrations of VP16. The compound VP16 (etoposide) is a commercially available DNA intercalator chemotherapeutic agent, widely used in the treatment of lung and testicular cancers as well as lymphomas. The choice of VP16 as a control is based on the fact that it is a poor topoisomerase II inhibitor, but is a powerful topoisomerase II poison which arrests the enzyme's cycle at the ternary drug-enzyme-DNA cleavage complex stage, leading to observation of linear DNA fragments upon SDS denaturation of the enzyme (i.e., work-up). Comparison of the VP16 results with the results of MA_AuPr would therefore give a good indication of whether the gold(III) chelate is an inhibitor or a poison.
Lane 1 of the gel (FIG. 14) is the control experiment with only supercoiled plasmid DNA present. The control contains no topoisomerase II and so the DNA supercoiled structure cannot be relaxed, as the topoisomerase II enzyme would usually do. […] At a higher concentration of the test agent (50 μM), both supercoiled plasmid DNA and linear cleavage products are observed. […] At very high concentrations (>500 μM), MA_AuPr behaves exclusively as a catalytic inhibitor of the enzyme.
The role of gold(III) in the efficacy of the compound was determined by modifying the structure of MA_AuPr by replacing the Au(III) cation with Pd(II) to afford MA_PdPr (the isoelectronic square planar coordination complex of known structure and geometry^31) and carrying out the DNA relaxation assay with topoisomerase II as before. The metal-free ligand (MA_H2PrLig) was tested under identical conditions to confirm that the mechanism of action is related to the intact structure of the metal chelate.

SMILES: C1=NCCCN=Cc2ccc[n]2[Au+][n]2cccc21.[Cl-] [MA_AuPr, 2,2′-{propane-1,3-diylbis[nitrilo(E)methylylidene]}bis(pyrrol-1-ido)gold(III) chloride]
- Cytotoxicity (human cancer cell lines): active
- activity against topoisomerase I (topoisomerase I): inactivity; also recorded: not a topoisomerase I poison
- Genotoxicity (Genotoxicity): not genotoxic; also recorded: Negative
- one-dose screening result [1]: leukemia, breast, and colon cancer cell lines are inherently more susceptible
- Microsomal clearance t1/2 (Microsomal clearance): t1/2 < 10 min
- concentration at which compound behaves exclusively as catalytic inhibitor (topoisomerase II): > 500 µM
- action on topoisomerase II (topoisomerase II; compared with VP-16 (etoposide)): both a poison and a catalytic topoisomerase II inhibitor
- concentration of catalytic inhibition of topoisomerase II (topoisomerase II; supercoiled plasmid DNA not relaxed): 50 µM
- concentration at which topoisomerase II poisoning (DNA cleavage induction) is observed (topoisomerase II; supercoiled plasmid DNA, linear cleavage products): 0.5 µM

Source: patent US9346832B2, “Gold complexes for use in the treatment of cancer” (University of Kwazulu-Natal, priority 2010, dated 2016)
